From patent US4690935A, “Inhibition of tumor growth and metastasis with calcium channel blocker compounds” (Wayne State University, priority 1983, dated 1987)
Entries after “also recorded” stand apart in the source; their conditions may differ. Like-named read-outs stand apart in the source and are kept apart here.

How the values were obtained:
B16a Tumor Cells = test: "Spontaneous" lung metastasis from an in vivo subcutaneous implant of B16a tumor cells; parameters: species or system mouse; conditions: mice; for % of Control (mean number of pulmonary metastases): oral once daily, 27 days, x ± SEM, N = 10, control = 100%; for reduction of spontaneous metastasis (in words): chronic oral administration
Description: B16 amelanotic melanoma (B16a) and Walker 256 L-Pam carcinosarcoma were obtained from the Division of Cancer Treatment, Animal and Human Tumor Bank, Mason Research Institute, Worcester, Mass. Tumors were passaged four times after receipt in syngeneic C57BL/6J male mice (B16a) or allogenic Sprague Dawley rats (Walker 256 L-Pam). Passaging involved subcutaneous implantations of tumor pices (diced to approximately 2×2 MM) into the right auxiliary region using a 18 gauge needle. Mice weighing approximately 20 grams (4 to 5 weeks old) were used to passage the B16a cell line and female rats were used to passage the Walker 256 L-Pam cell line. Animals were housed under identical conditions of temperature, feeding, photoperiod, etc. The transplanted tumors were allowed to grow for approximately 14 days following implantation.
The B16a tumor cells, obtained by the previously described procedure of tumor dispersion and tumor cell elutriation were used to test the antimetastatic effect of BAY e 9736.
The effect of chronic oral administration of BAY e 9736 on spontaneous lung metastasis from a primary subcutaneous B16a tumor was also determined. A 16 mg portion of BAY e 9736 was dissolved in 1 ml of PEG-400 and diluted 1:8, 1:32, 1:80, and 1:800. Syngeneic C56BL/6J mice were injected subcutaneously with 1×10^5 B16a tumor cells in 0.1 ml prepared as previously described. Starting one day post tumor injection, the mice were administered BAY e 9736 orally once a day for 27 days with 0.1 ml of the diluted BAY e 9736. The control and treated mice were housed under identical conditions of temperature, feeding and photoperiod, etc. The mice were sacrificed 28 days after the injection of tumor cells and the lungs were removed in Bouin's solution and visible bilateral metastasis counted.

[1] = system: Walker 256 L-Pam tumor cell; test: Walker 256 L-Pam tumor cell attachment to virally transformed endothelial cell monolayer (RCE-T1); type: cell-based, rat; conditions: 0.04 mg/ml; for effect on tumor cell adhesion to endothelial cell monolayer (in words): thirty minutes preincubation; for inhibition at 40 µg/mL: Rattus norvegicus, Walker 256, 1 h, 1 h plating, x ± SEM, n = 4, read-out: % Inhibition vs Control (attachment to endothelial cells)
Description: Walker ^256 L-Pam tumor cells were plated at approximately 5×10^5 cells/flask. The cells were labelled with ^125 I-UDR (iodinated uridine deoxyribonucleic acid) at 0.5 microcuries/ml media (5.0 microcurie/flask). Cells were incubated for approximately 24 hours and the cell count/flask was determined to be 8.14×10^5 cell/flask. The cells from each flask were counted (gamma counter) and found to have an average of 0.24 cpm/cell.
Platelet enhanced tumor cell attachment to plastic was tested using four conditions: tumor cell alone (Condition A), tumor cells plus washed platelets (Condition B), tumor cells plus platelet poor plasma (Condition C) and tumor cells, washed platelets and platelet poor plasma (Condition D).
Walker 256 L-Pam tumor cells obtained from culture are radiolabeled with ^125 I-UDR as described previously. The radiolabeled cells are removed from T-75 flasks with trypsin (2 milliliters of 0.25% trypsin and 0.01% EDTA) in MEM. After two minutes, the flasks are washed 3X with trypsin "quench," 10% fetal calf serum in MEM, to quench and remove the trypsin in order to prevent cell lysis. The tumor cells are removed from the flasks in MEM and adjusted to 2.5×10^5 cells /milliliter. One hundred microliters of the tumor cell suspension (2.5×10^4 cells) were plated in […] tissue culture wells (Costar) and overlaid with 250 microliters of Wash Solution #2 (see Platelet Prep). The cells were incubated at room temperature (approximately 22° C.) for 5 minutes. Following this incubation 10 microliters of 7.35 mg/ml CaCl2 were added to the culture wells, 10 microliters of platelet poor plasma (diluted 1:32 with platelet Wash Solution #2) were added to culture wells for Conditions C and D and 250 microliters of washed platelets (3×10^8 /ml final concentration) were added to culture wells for Conditions B and D. Where appropriate, Wash Solution #2 was added to wells (Conditions A and C) so that all wells had the same final volume of solutions. The wells were incubated for one hour at 37° C. After the one hour incubation, the media containing any unattached tumor cells were removed by aspiration and then the wells were washed 2X with 1 ml of sodium phosphate buffer (PBS). The adhering cells were removed by trypsinization (as described above) and counts per wells determined using a gamma counter. Results were determined as total cpm plated per well.
Platelet enhanced tumor cell attachment to a virally transformed endothelial cell monolayer (on plastic wells) was also tested. The experimental protocal utilized was similar to that described above. The only significant difference is that in the above assay the floor of each incubation well is the plastic material of the plate, and in these assays, that plastic floor is covered with a confluent monolayer of virally transformed rat cerebral microvascular endothelial cells. The cells were prepared and plated as described in detail in Laboratory Investigations, Vol 46, No. 6, […], 1982 (Diglio, C. A., Grammas, P., Giacomelli, F., and Wiener, J., Lab. Investigations Vol 46, No. 6, p554-563, 1982) and in J. Cell. Biol (Manuscript accepted 3/83) (Diglio, C., Wolfe, D. E., and Meyers, P. J. Cell. Biol. manuscript in press, 1983). Briefly, rat endothelial cells were dispersed from […] microvasculature by collagenase treatment. Migrating cells and cell proliferation are seen. Isolated cells are allowed to proliferate in culture until the expected "cobblestone" appearance characteristic of normal endothelial cells is obtained.
Cultured (subconfluent) normal endothelial cells are infected with Schmidt-Ruppin Rous Sarcoma virus-strain D (SR-RSV-D). A single transformed focus was isolated and recultured. The resulting transformed endothelial cell line was designated RCE-T1 (also known as SR-D1).
In the actual assay, the protocol for tumor cell adhesion to plastic or transformed endothelial cell are similar. […]

COCCOC(=O)C1=C(C)NC(C)=C(C(=O)OC(C)C)C1c1cccc([N+](=O)[O-])c1 (stereo not drawn) [BAY e 9736, 1,4-dihydro-2,6-dimethyl-4-(3' nitrophenyl)-pyridine-3-(beta-methyoxyethylester)-5-(isopropyl ester)]
% of Control (mean number of pulmonary metastases) (B16a Tumor Cells; 0.1 mg/kg): 68 ± 14% | % of Control (mean number of pulmonary metastases) (B16a Tumor Cells; 1.0 mg/kg): 45 ± 9% | % of Control (mean number of pulmonary metastases) (B16a Tumor Cells; 2.5 mg/kg): 33 ± 22% | % of Control (mean number of pulmonary metastases) (B16a Tumor Cells; 10.0 mg/kg): 28 ± 7% | % of Control (mean number of pulmonary metastases) (B16a Tumor Cells; 80.0 mg/kg): 19 ± 6% | reduction of spontaneous metastasis (in words) (B16a Tumor Cells): effective in decreasing the number of spontaneous metastasis as compared to the control mice | reduction of spontaneous metastasis (in words) (B16a Tumor Cells; listed as nimodipine): significantly reduce spontaneous metastasis | effect on tumor cell adhesion to endothelial cell monolayer (in words) [1]: decreased the percent of cells adhering to the plastic wells as well as the endothelial cell monolayer; also recorded: significant in all groups tested | effect on tumor cell adhesion to endothelial cell monolayer (in words) ([1]; listed as nimodipine): decreases or inhibits the adhesion of tumor cells to plastic incubation wells and to virally transformed endothelial cell monolayers | inhibition at 40 µg/mL ([1]; A = tumor cells alone): 50% | inhibition at 40 µg/mL ([1]; B = tumor cells + platelets): 65 ± 7.8% | inhibition at 40 µg/mL ([1]; C = tumor cells + PPP): 60 ± 5% | inhibition at 40 µg/mL ([1]; D = tumor cells + PPP + platelets): 53 ± 5.5%
